Test results: patent US20100310553A1, “Compositions and Methods for Controlling Hepatitis C Virus Infection” (priority 2006, published 2010)

Key:
apoB = apoB in media of HCV-infected Huh7.5 cells treated with inhibitor, Western blotting; assay type: cell-based; settings: 1 μM; 4 days
Experimental: (§1) With reference to FIGS. 14A-14F, studies were carried out to determine the effects of an MTP inhibitor, CP-346086, on lipoprotein production/secretion and HCV production. […] To determine the effect of CP-346086 on HCV production, Huh7.5 cells were infected with HCV at 37° C. for 2 hr and then incubated with varying concentrations of CP-346086 for 4 days. The levels of apoB and apoE in the media were determined by Western blotting. […] The levels of HCV virions released into the media were initially determined by infectivity assay in cell culture. The naïve Huh7.5 cells were infected with HCV-containing media. At 3 days p.i., the levels of HCV NS3 protein and positive-stranded RNA were quantified by Western blotting and RPA, respectively. […] Similarly, CP-346086 lowered the infectious HCV titers by 1, 2, 3, and 4 orders of magnitude (10, 100, 1,000, and 10,000 times) at concentrations of 6.25, 12.5, 25, and 50 μM, respectively, as illustrated in FIG. 14E.

apoE = apoE in media of HCV-infected Huh7.5 cells treated with inhibitor, Western blotting; assay type: cell-based; settings: 4 days
Experimental: as §1

HCV [1] = assay: HCV production: infectivity of media of CP-346086-treated, HCV-infected Huh7.5 cells on naive Huh7.5 cells; assay type: cell-based, Hepatitis C virus
Experimental: as §1

[2] = tested on: subgenomic HCV replicon of genotype 2a; assay: HCV RNA replication in Huh7.5 cells harboring a subgenomic HCV replicon of genotype 2a; assay type: cell-based, Hepatitis C virus; settings: subgenomic replicon genotype 2a, RPA
[3] = tested on: apoB and triglyceride secretion; settings: HepG2 cells; cited from earlier work
HCV [4] = assay: HCV production after treatment of HCV-infected cells with commercial inhibitors of lipoprotein assembly and secretion, RPA; assay type: cell-based, Hepatitis C virus; settings: increasing concentrations; positive-strand HCV RNA by RPA, 3 days p.i.
Experimental: These inhibitors were used to treat HCV-infected cells. The culture supernatants were then used to infect naïve Huh7.5 cells. At 3 days p.i., the levels of positive-strand HCV RNA were determined by RPA.

HCV [5] = assay: HCV infection of Huh7.5 cells in the presence of apoE3 or apoC-I protein; assay type: cell-based, Hepatitis C virus; settings: increasing concentrations (μg/ml); RPA
Experimental: With reference to FIGS. 16A and 16B, the effect of recombinant apolipoprotein E3 (apoE3) and purified apoC-I on HCV infection was investigated. Huh7.5 cells were infected with HCV in the presence of increasing concentrations (μg/ml) of apoE3 or apoC-I, as indicated on the top of the figures. At 3-hr p.i., the HCV-infected cells were washed with 1×PBS twice and were incubated with medium for 3 days. With reference to FIG. 16A, the levels of HCV NS3 protein in the cells infected with HCV in the presence of apoE3 were then determined by Western blot analysis using an NS3-specific monoclonal antibody and a cellular beta-actin protein as an internal control. With reference to FIG. 16B, HCV positive-strand RNA in the cells infected with HCV in the presence of apoC-I were quantified by RPA.

O=C(Nc1ccc2c(c1)CCN(Cc1ncn[nH]1)C2)c1ccccc1-c1ccc(C(F)(F)F)cc1 [CP-346086]
apoB secretion (apoB): almost completely blocked | concentration up to which apoE secretion was not reduced (apoE): above 3 μM | lowering of infectious HCV titers (HCV [1]; 6.25 μM): 10 times | lowering of infectious HCV titers (HCV [1]; 12.5 μM): 100 times | lowering of infectious HCV titers (HCV [1]; 25 μM): 1,000 times | lowering of infectious HCV titers (HCV [1]; 50 μM): 10,000 times | reduction of HCV positive-stranded RNA level (HCV [1]; 50 μM, 3 days p.i., RPA): > 95% | reduction of HCV NS3 protein level (HCV [1]; 50 μM, 3 days p.i., Western blotting): > 95% | HCV RNA replication [2]: no significant effect | IC50 [3]: 2.6 nM

COc1ccc(Cl)cc1C(=O)NCCc1ccc(S(=O)(=O)NC(=O)NC2CCCCC2)cc1 [glybenclamide]
levels of HCV virion production (HCV [4]): significantly decreased

COc1ccc([C@@H]2CC(=O)c3c(O)cc(O)cc3O2)cc1O [hesperetin]
levels of HCV virion production (HCV [4]): significantly decreased

O=c1c(O)c(-c2ccc(O)c(O)c2)oc2cc(O)cc(O)c12 [quercetin]
levels of HCV virion production (HCV [4]): significantly decreased

ApoC-I: purified apoC-I protein (TPDVSSALDKLKEFGNTLEDKARELISRIKQSELSAKMREWFSETFQKVKEKLKIDS; UniProt P02654 27-83, looked up)
inhibition of HCV infection (HCV positive-strand RNA) (HCV [5]): inhibited HCV infection in a dose-dependent manner
